# From PMC7576608, “Mechanisms of telomerase inhibition by oxidized and therapeutic dNTPs” (Nature Communications, 2020)
# “And” between values parts separate entries of the source, which are not always exact repeats. Equal entries are not always repeated. Where two headings read alike, the source gives them in different places.
# Target: telomerase (Homo sapiens, UniProt O14746)
# Test: Telomerase repeat processivity IC50: modified dNTP titrated into reactions with all four natural dNTPs
# Assay type: biochemical
# Set-up: made in house; anti-FLAG immunopurification, eluted with 3xFLAG peptide
# Conditions: for YIntercept (line fit of ln(100-%LB) vs # telomere repeats) / ln(100-%LB): n1-n3; for Processivity R 1/2: replicates n1-n3
# Source text: In order to better understand the ability of modified dNTPs to compete with natural dNTPs for telomerase utilization, we added modified dNTPs to reactions containing all four natural dNTPs. […] The calculated IC50 determines the concentration required to reduce repeat processivity in the bulk reactions by half. However, it is important to note that bulk experiments cannot distinguish effects on individual telomeres, since extended telomeres mask unextended telomeres. Incorporation of a chain terminator during any step will terminate extension of the affected telomere, and just five critically short telomeres are sufficient to trigger senescence. Therefore, repeat processivity IC50 values are not necessarily an indicator of the inhibitory potency, but provide information on selectivity for modified dNTPs compared to natural dNTPs. […] The ability to purify sufficient quantities of tcTERT enables characterization of the catalytic nucleotide addition by pre-steady-state single turnover kinetics using a defined DNA–RNA primer–template substrate. The catalytic efficiency of incorporating a single dNTP is measured by dividing the observed nucleotide incorporation rate constant, kpol, by the equilibrium dissociation constant for dNTP binding to the tcTERT–primer–template complex (Kd)[44].
# The reactions were started by the addition of 3 μl of immunopurified telomerase eluent, incubated at 37 °C for 1 h, then terminated with 2 μl of […] and heat inactivated at 65 °C for 20 min. An equal volume of loading buffer (94% formamide, 0.1× TBE, 0.1% bromophenol blue, 0.1% xylene cyanol) was added to the reaction eluent. The samples were heat denatured for 10 min at 100 °C and loaded onto a 14% denaturing acrylamide gel (7 M urea, 1× TBE) and electrophoresed for 90 min at constant 38 W. Samples were imaged using a Typhoon phosphorimager (GE Healthcare). Percent primer extension was calculated with ImageQuant TL 8.2 by measuring the intensity of each product band and dividing by the total radioactivity in the lane or total products, as indicated in the figure legends.
# The processivity was calculated as described[40],[67]. Repeat processivity from the direct telomerase extension assays was calculated as R1/2 (equivalent to the half-time for decay in an exponential time course), which represents the median length of DNA product formed, expressed in terms of number of telomere repeats. First, the total volume counts for each product band extend by one or more telomere repeats were obtained using Image Quant TL. The volume counts were then normalized by dividing by the number of radiolabeled guanosines incorporated into the extended products based on the number of repeats added, termed corrected volume (corr vol). The “percent left behind” (%LB) was calculated for each product band by summing the counts for that product band and for every product band below (shorter products), divided by the total counts for the lane, and then multiplied by 100. The natural log of (100−%LB) was calculated and then plotted vs. repeat number for each product length. A linear regression line was fit to the data to determine the slope of the line. The R1/2 value was calculated by dividing −ln(2) by the slope of each fitted line (R1/2 = −ln(2)/slope).
# Supplementary Fig 8. IC50 values for telomerase processivity inhibition. Telomerase reactions were conducted with cellular relevant concentrations of all four natural dNTPs and increasing concentrations of the modified dNTP analog from 0 to 10,000 μM to calculate. (a) The natural log of (100-%LB) was plotted vs repeat number. A straight line was fit to the data and the R1/2 value was calculated by dividing –ln(2) by the slope of each line. Plots shown from one experiment are […]
# [1] = fit of R 1/2 vs log(concentration), 8-oxo-dATP, replicates N1-N3
# Chain of telomerase (O14746 whole entry): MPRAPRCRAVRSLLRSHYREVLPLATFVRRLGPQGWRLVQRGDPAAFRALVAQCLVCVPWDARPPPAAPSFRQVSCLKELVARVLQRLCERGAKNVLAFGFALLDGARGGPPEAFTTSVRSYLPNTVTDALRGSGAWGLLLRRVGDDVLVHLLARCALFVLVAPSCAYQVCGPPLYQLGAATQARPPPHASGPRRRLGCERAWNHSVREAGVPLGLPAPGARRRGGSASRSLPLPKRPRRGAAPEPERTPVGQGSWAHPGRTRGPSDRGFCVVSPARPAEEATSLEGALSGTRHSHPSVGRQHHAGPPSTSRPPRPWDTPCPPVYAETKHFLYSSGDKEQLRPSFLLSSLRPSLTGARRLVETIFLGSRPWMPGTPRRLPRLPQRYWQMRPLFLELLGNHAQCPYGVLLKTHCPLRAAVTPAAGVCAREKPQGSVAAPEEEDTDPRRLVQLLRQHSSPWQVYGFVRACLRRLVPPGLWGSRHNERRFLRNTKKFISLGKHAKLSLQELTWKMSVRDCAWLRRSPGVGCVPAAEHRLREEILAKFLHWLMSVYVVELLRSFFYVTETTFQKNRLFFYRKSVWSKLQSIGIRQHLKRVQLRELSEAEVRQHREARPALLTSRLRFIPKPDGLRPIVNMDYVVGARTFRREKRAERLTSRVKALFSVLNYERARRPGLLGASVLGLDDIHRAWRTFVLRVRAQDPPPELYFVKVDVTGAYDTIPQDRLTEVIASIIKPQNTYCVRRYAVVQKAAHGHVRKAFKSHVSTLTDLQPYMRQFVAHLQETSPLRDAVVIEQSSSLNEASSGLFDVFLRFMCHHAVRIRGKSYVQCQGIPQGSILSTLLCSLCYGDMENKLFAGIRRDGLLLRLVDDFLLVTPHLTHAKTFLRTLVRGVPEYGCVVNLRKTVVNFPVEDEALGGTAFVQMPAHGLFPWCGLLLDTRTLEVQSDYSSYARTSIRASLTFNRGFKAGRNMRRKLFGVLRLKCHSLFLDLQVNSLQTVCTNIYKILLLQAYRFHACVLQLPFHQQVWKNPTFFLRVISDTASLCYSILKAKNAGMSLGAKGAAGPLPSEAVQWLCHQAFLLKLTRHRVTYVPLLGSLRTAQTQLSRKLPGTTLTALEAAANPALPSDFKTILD
smiles,measurement,setting,value
Nc1ncnc2c1[nH]c(=O)n2C1CC(O)C(COP(=O)(O)OP(=O)(O)OP(=O)(O)O)O1 (centres unmarked) [8-oxo-dATP],YIntercept (line fit of ln(100-%LB) vs # telomere repeats),8-oxo-dATP 31μM,3.85 and 3.01 and 3.93
same,ln(100-%LB),"8-oxo-dATP 31μM, telomere repeat 3",2.65 and 1.66 and 2.57
same,ln(100-%LB),"8-oxo-dATP 31μM, telomere repeat 4",2.41 and 1.27 and 2.30
same,Processivity R 1/2,8-oxo-dATP 31.25 μM,2.10 (2×) and 1.89
same,YIntercept (line fit of ln(100-%LB) vs # telomere repeats),8-oxo-dATP 62μM,3.73 and 4.08 and 3.84
same,ln(100-%LB),"8-oxo-dATP 62μM, telomere repeat 2",3.20
same,ln(100-%LB),"8-oxo-dATP 62μM, telomere repeat 3",2.53 and 2.54 and 2.74
same,ln(100-%LB),"8-oxo-dATP 62μM, telomere repeat 4",2.27 and 2.24 and 2.50
same,ln(100-%LB),"8-oxo-dATP 62μM, telomere repeat 5",2.02 and 1.94 and 2.24
same,ln(100-%LB),"8-oxo-dATP 62μM, telomere repeat 6",1.71 and 1.56 and 1.91
same,ln(100-%LB),"8-oxo-dATP 62μM, telomere repeat 7",1.38 and 1.06 and 1.53
same,ln(100-%LB),"8-oxo-dATP 62μM, telomere repeat 8",1.13 and 0.68 and 1.26
same,Processivity R 1/2,8-oxo-dATP 62.5 μM,1.60 (2×) and 2.26
same,YIntercept (line fit of ln(100-%LB) vs # telomere repeats),8-oxo-dATP 250μM,3.94 and 3.80 and 3.85
same,Processivity R 1/2,8-oxo-dATP 250 μM,1.82 (2×) and 2.54
same,ln(100-%LB),"8-oxo-dATP 250μM, telomere repeat 2",3.33 and 3.42 and 3.45
same,ln(100-%LB),"8-oxo-dATP 250μM, telomere repeat 3",2.64 and 2.77 and 2.84
same,ln(100-%LB),"8-oxo-dATP 250μM, telomere repeat 4",2.37 and 2.53 and 2.60
same,ln(100-%LB),"8-oxo-dATP 250μM, telomere repeat 5",2.09 and 2.29 and 2.37
same,ln(100-%LB),"8-oxo-dATP 250μM, telomere repeat 6",1.75 and 2.02 and 2.10
same,ln(100-%LB),"8-oxo-dATP 250μM, telomere repeat 7",1.29 and 1.68 and 1.81
same,ln(100-%LB),"8-oxo-dATP 250μM, telomere repeat 8",0.96 and 1.40 and 1.57
same,ln(100-%LB),"8-oxo-dATP 250μM, telomere repeat 9",0.67 and 1.15 and 1.32
same,YIntercept (line fit of ln(100-%LB) vs # telomere repeats),8-oxo-dATP 500μM,3.61 and 4.18 and 3.88
same,Processivity R 1/2,8-oxo-dATP 500 μM,1.42 (2×) and 2.03
same,ln(100-%LB),"8-oxo-dATP 500μM, telomere repeat 2",3.10 and 3.59 and 3.36
same,ln(100-%LB),"8-oxo-dATP 500μM, telomere repeat 3",2.50 and 3.01 and 2.60
same,ln(100-%LB),"8-oxo-dATP 500μM, telomere repeat 4",2.24 and 2.80 and 2.29
same,ln(100-%LB),"8-oxo-dATP 500μM, telomere repeat 5",1.94 and 2.56 and 2.01
same,ln(100-%LB),"8-oxo-dATP 500μM, telomere repeat 6",1.62 and 2.28 and 1.70
same,ln(100-%LB),"8-oxo-dATP 500μM, telomere repeat 7",1.26 and 1.91 and 1.22
same,ln(100-%LB),"8-oxo-dATP 500μM, telomere repeat 8",0.97 and 1.63 and 0.93
same,YIntercept (line fit of ln(100-%LB) vs # telomere repeats),8-oxo-dATP 750μM,4.26 and 4.00 and 3.87
same,Processivity R 1/2,8-oxo-dATP 750 μM,1.36 (2×) and 2.25
same,ln(100-%LB),"8-oxo-dATP 750μM, telomere repeat 2",3.17 and 3.44 and 3.29
same,ln(100-%LB),"8-oxo-dATP 750μM, telomere repeat 3",2.50 and 2.85 and 2.65
same,ln(100-%LB),"8-oxo-dATP 750μM, telomere repeat 4",2.17 and 2.63 and 2.39
same,ln(100-%LB),"8-oxo-dATP 750μM, telomere repeat 5",1.81 and 2.42 and 2.15
same,ln(100-%LB),"8-oxo-dATP 750μM, telomere repeat 6",1.40 and 2.17 and 1.87
same,YIntercept (line fit of ln(100-%LB) vs # telomere repeats),8-oxo-dATP 1000μM,4.48 and 4.47 and 4.44
same,Processivity R 1/2,8-oxo-dATP 1000 μM,0.53 (2×) and 0.83
same,YIntercept (line fit of ln(100-%LB) vs # telomere repeats),8-oxo-dATP 1500μM,5.00 and 4.48 and 4.84
same,Processivity R 1/2,8-oxo-dATP 1500 μM,0.00
same,Processivity R 1/2,8-oxo-dATP 2000 μM,0.00
same,IC50,"cellular relevant natural dNTPs, modified dNTP titrated 0 to 10,000 μM, based on repeat processivity, mean ± SD, read-out: Telomerase processivity IC50",946 ± 49 µM
same,LogIC50,"fit of R 1/2 vs log(concentration μM), 8-oxo-dATP, replicates N1-N3",2.95 and 2.99 (2×)
same,Bottom (best-fit value),[1],-0.12 and 0.69 and -0.000954
same,HillSlope,[1],-4.30 and -46.77 and -16.13
same,Span (best-fit value),[1],1.94 and 1.65 and 2.29
same,Top (best-fit value),[1],1.81 and 2.33 and 2.29
same,IC50,"log of processivity IC50 (concentration in μM), Supplementary Fig 8b, read-out: Log IC50 (converted)",794 µM
same,IC50,"repeat processivity R 1/2, 8-oxo-dATP, mean of N1-N3, read-out: Mean IC50",946 µM
same,IC50,"repeat processivity R 1/2, 8-oxo-dATP, single replicates N1-N3, read-out: IC50",890 µM and 982 µM and 966 µM
